Measured values reported in ChEMBL document CHEMBL1649164, “First organisms with acquired metallo-beta-lactamases (IMP-13, IMP-22, and VIM-2) reported in Austria” (2009).
≈ marks a conversion by molar mass, not a printed value.

Legend:
Assay type in all cases: functional
Pseudomonas aeruginosa [1] = experiment: Antimicrobial activity against Pseudomonas aeruginosa isolate M136074 expressing IMP-22 beta lactamase gene by Etest
Pseudomonas aeruginosa [2] = experiment: Antimicrobial activity against Pseudomonas aeruginosa isolate 26285 expressing IMP-13 beta lactamase gene by Etest
Pseudomonas aeruginosa [3] = experiment: Antimicrobial activity against Pseudomonas aeruginosa isolate 22843 expressing VIM-2 beta lactamase gene by Etest
Pseudomonas aeruginosa [4] = experiment: Antimicrobial activity against Pseudomonas aeruginosa isolate 27135 expressing VIM-2 beta lactamase gene by Etest
Pseudomonas aeruginosa [5] = experiment: Antimicrobial activity against Pseudomonas aeruginosa isolate M136074 expressing IMP-22 beta lactamase gene by Etest in presence of Tazobactam
Pseudomonas aeruginosa [6] = experiment: Antimicrobial activity against Pseudomonas aeruginosa isolate 26285 expressing IMP-13 beta lactamase gene by Etest in presence of Tazobactam
Pseudomonas aeruginosa [7] = experiment: Antimicrobial activity against Pseudomonas aeruginosa isolate 22843 expressing VIM-2 beta lactamase gene by Etest in presence of Tazobactam
Pseudomonas aeruginosa [8] = experiment: Antimicrobial activity against Pseudomonas aeruginosa isolate 27135 expressing VIM-2 beta lactamase gene by Etest in presence of Tazobactam
Pseudomonas aeruginosa [9] = experiment: Antimicrobial activity against Pseudomonas aeruginosa isolate M136074 expressing IMP-22 beta lactamase gene by Etest in presence of clavulanate
Pseudomonas aeruginosa [10] = experiment: Antimicrobial activity against Pseudomonas aeruginosa isolate 26285 expressing IMP-13 beta lactamase gene by Etest in presence of clavulanate
Pseudomonas aeruginosa [11] = experiment: Antimicrobial activity against Pseudomonas aeruginosa isolate 22843 expressing VIM-2 beta lactamase gene by Etest in presence of clavulanate
Pseudomonas aeruginosa [12] = experiment: Antimicrobial activity against Pseudomonas aeruginosa isolate 27135 expressing VIM-2 beta lactamase gene by Etest in presence of clavulanate

Molecule	MIC (Pseudomonas aeruginosa [1]) [µg/mL]	MIC (Pseudomonas aeruginosa [2]) [µg/mL]	MIC (Pseudomonas aeruginosa [3]) [µg/mL]	MIC (Pseudomonas aeruginosa [4]) [µg/mL]	MIC (Pseudomonas aeruginosa [5]) [µg/mL]	MIC (Pseudomonas aeruginosa [6]) [µg/mL]	MIC (Pseudomonas aeruginosa [7]) [µg/mL]	MIC (Pseudomonas aeruginosa [8]) [µg/mL]	MIC (Pseudomonas aeruginosa [9]) [µg/mL]	MIC (Pseudomonas aeruginosa [10]) [µg/mL]	MIC (Pseudomonas aeruginosa [11]) [µg/mL]	MIC (Pseudomonas aeruginosa [12]) [µg/mL]
NCC[C@H](O)C(=O)N[C@@H]1C[C@H](N)[C@@H](O[C@H]2O[C@H](CN)[C@@H](O)[C@H](O)[C@H]2O)[C@H](O)[C@H]1O[C@H]1O[C@H](CO)[C@@H](O)[C@H](N)[C@H]1O [AMIKACIN]	6 (≈ 10.2 µM)	24 (≈ 41 µM)	> 256	> 256								
C[C@H]1[C@H](NC(=O)/C(=N\OC(C)(C)C(=O)O)c2csc(N)n2)C(=O)N1S(=O)(=O)O [AZTREONAM]	4 (≈ 9.19 µM)	12 (≈ 27.6 µM)	12 (≈ 27.6 µM)	12 (≈ 27.6 µM)								
CO/N=C(\C(=O)N[C@@H]1C(=O)N2C(C(=O)[O-])=C(C[N+]3(C)CCCC3)CS[C@H]12)c1csc(N)n1 [CEFEPIME]	128 (≈ 266 µM)	128 (≈ 266 µM)		24 (≈ 49.9 µM)								
CO/N=C(\C(=O)N[C@@H]1C(=O)N2C(C(=O)O)=C(COC(C)=O)CS[C@H]12)c1csc(N)n1 [CEFOTAXIME]	> 256	> 256	> 256	> 256								
CC(C)(O/N=C(\C(=O)N[C@@H]1C(=O)N2C(C(=O)[O-])=C(C[n+]3ccccc3)CS[C@H]12)c1csc(N)n1)C(=O)O [CEFTAZIDIME]	> 256	> 256	12 (≈ 22 µM)	12 (≈ 22 µM)								
O=C(O)c1cn(C2CC2)c2cc(N3CCNCC3)c(F)cc2c1=O [CIPROFLOXACIN]	32 (≈ 96.6 µM)	> 32	> 32	> 32								
C[C@@H](O)[C@H]1C(=O)N2C(C(=O)O)=C(SCCNC=N)C[C@H]12 [IMIPENEM ANHYDROUS]	12 (≈ 40.1 µM)	> 32	> 32	> 32								
C[C@@H](O)[C@H]1C(=O)N2C(C(=O)O)=C(S[C@@H]3CN[C@H](C(=O)N(C)C)C3)[C@H](C)[C@H]12 [MEROPENEM]	24 (≈ 62.6 µM)	> 32	> 32	> 32								
CCN1CCN(C(=O)N[C@@H](C(=O)N[C@@H]2C(=O)N3[C@@H]2SC(C)(C)[C@@H]3C(=O)O)c2ccccc2)C(=O)C1=O [PIPERACILLIN]	12 (≈ 23.2 µM)	16 (≈ 30.9 µM)	32 (≈ 61.8 µM)	32 (≈ 61.8 µM)	8	16	32	32				
CC1(C)S[C@@H]2[C@H](NC(=O)[C@H](C(=O)O)c3ccsc3)C(=O)N2[C@H]1C(=O)O [TICARCILLIN]	> 256	> 256	> 256	> 256					> 256	> 256	> 256	> 256
NC[C@H]1O[C@H](O[C@H]2[C@H](O)[C@@H](O[C@H]3O[C@H](CO)[C@@H](O)[C@H](N)[C@H]3O)[C@H](N)C[C@@H]2N)[C@H](N)C[C@@H]1O [TOBRAMYCIN]	2 (≈ 4.28 µM)	128 (≈ 274 µM)	> 256	> 256								
COLISTIN	6	6	4	4								
GENTAMICIN	4	> 256	8	8								
